Experimental data reported in the supplement of paper PMC13380429.

What was measured:
Conditions in all cases: 72 h
U2OS [1] = assay: drug sensitivity score (DSS) for viability; higher = more toxic; extreme values may be limits of the assay
Calu-3 [2] = assay: as above
Caco-2 [3] = assay: as above
Vero E6 [4] = assay: as above
HepG2 [5] = assay: as above
U2OS [6] = assay: relative viability EC50 (midpoint between 100% and the lowest measured viability); higher = less toxic
Calu-3 [7] = assay: as above
Caco-2 [8] = assay: as above
Vero E6 [9] = assay: as above
HepG2 [10] = assay: as above
U2OS [11] = assay: cell viability relative to DMSO; higher = less toxic
Calu-3 [12] = assay: as above
Caco-2 [13] = assay: as above
Vero E6 [14] = assay: as above
HepG2 [15] = assay: as above

Row | Compound | drug sensitivity score (U2OS [1]) | drug sensitivity score (Calu-3 [2]) | drug sensitivity score (Caco-2 [3]) | drug sensitivity score (Vero E6 [4]) | drug sensitivity score (HepG2 [5]) | relative viability EC50 (U2OS [6]) [µM] | relative viability EC50 (Calu-3 [7]) [µM] | relative viability EC50 (Caco-2 [8]) [µM] | relative viability EC50 (Vero E6 [9]) [µM] | relative viability EC50 (HepG2 [10]) [µM] | cell viability (U2OS [11]; 1 nM) [%] | cell viability (U2OS [11]; 10 nM) [%] | cell viability (U2OS [11]; 100 nM) [%] | cell viability (U2OS [11]; 1000 nM) [%] | cell viability (U2OS [11]; 10000 nM) [%] | cell viability (Calu-3 [12]; 1 nM) [%] | cell viability (Calu-3 [12]; 10 nM) [%] | cell viability (Calu-3 [12]; 100 nM) [%] | cell viability (Calu-3 [12]; 1000 nM) [%] | cell viability (Calu-3 [12]; 10000 nM) [%] | cell viability (Caco-2 [13]; 1 nM) [%] | cell viability (Caco-2 [13]; 10 nM) [%] | cell viability (Caco-2 [13]; 100 nM) [%] | cell viability (Caco-2 [13]; 1000 nM) [%] | cell viability (Caco-2 [13]; 10000 nM) [%] | cell viability (Vero E6 [14]; 1 nM) [%] | cell viability (Vero E6 [14]; 10 nM) [%] | cell viability (Vero E6 [14]; 100 nM) [%] | cell viability (Vero E6 [14]; 1000 nM) [%] | cell viability (Vero E6 [14]; 10000 nM) [%] | cell viability (HepG2 [15]; 1 nM) [%] | cell viability (HepG2 [15]; 10 nM) [%] | cell viability (HepG2 [15]; 100 nM) [%] | cell viability (HepG2 [15]; 1000 nM) [%] | cell viability (HepG2 [15]; 10000 nM) [%]
1 | Cc1cc(C)cc(OCC2CNC(=O)O2)c1 (stereo not given) [metaxalone] | 0 | 0 | 0 | 0 | 0 | > 10 | > 10 | > 10 | > 10 | > 10 | 97.4 | 96.8 | 97.1 | 99.2 | 98.8 | 95.6 | 102 | 103 | 100 | 95.4 | 100 | 101 | 99.9 | 103 | 105 | 101 | 103 | 102 | 105 | 97.7 | 92.1 | 99.7 | 87 | 93.2 | 101
2 | NCCc1cc[nH]n1 [betazole] | 0 | 0 | 0 | 0 | 0 | > 10 | > 10 | > 10 | > 10 | > 10 | 102 | 99.5 | 105 | 102 | 108 | 97.2 | 102 | 97.2 | 101 | 109 | 89 | 91.4 | 84.3 | 92.6 | 107 | 94.4 | 104 | 92.8 | 106 | 106 | 100 | 106 | 92.9 | 98 | 125
3 | Cc1cccc(-c2[nH]c(CNc3ccccc3F)nc2-c2ccc3ncnn3c2)n1 [EW-7197] | 0.1 | 0 | 0 | 0 | 0 | > 10 | > 10 | > 10 | > 10 | > 10 | 99.1 | 99.4 | 94.4 | 95.5 | 85.5 | 97.3 | 88.4 | 96.9 | 114 | 105 | 95.7 | 96.4 | 94.1 | 109 | 99.4 | 102 | 105 | 102 | 95.4 | 98.7 | 95.1 | 104 | 106 | 103 | 93.3
4 | C[C@H](CCC(=O)O)[C@H]1CC[C@H]2[C@@H]3CC[C@@H]4C[C@H](O)CC[C@]4(C)[C@H]3C[C@H](O)[C@]12C [deoxycholic-acid] | 0 | 0 | 0 | 0 | 0 | > 10 | > 10 | > 10 | > 10 | > 10 | 96.8 | 99.2 | 98.7 | 99.8 | 98.2 | 103 | 93.9 | 103 | 102 | 102 | 102 | 97.5 | 98.5 | 105 | 90 | 99.5 | 103 | 102 | 106 | 101 | 105 | 112 | 90.9 | 102 | 97.5
5 | CN(C)[C@@H]1C(O)=C(C(N)=O)C(=O)[C@@]2(O)C(O)=C3C(=O)c4c(O)cccc4[C@@](C)(O)[C@H]3C[C@@H]12 [tetracycline] | 0 | 0 | 0 | 0 | 0 | > 10 | > 10 | > 10 | > 10 | > 10 | 104 | 98.5 | 102 | 95 | 97.2 | 99.6 | 106 | 100 | 107 | 108 | 101 | 88.2 | 98.8 | 97.1 | 93.8 | 100 | 102 | 100 | 101 | 95.5 | 107 | 96.4 | 107 | 108 | 95.4
6 | CC(=O)NCCCS(=O)(=O)O [acamprosate] | 0 | 0 | 0 | 0 | 0 | > 10 | > 10 | > 10 | > 10 | > 10 | 95.7 | 99.3 | 99.3 | 102 | 99.2 | 104 | 102 | 97.9 | 105 | 103 | 109 | 102 | 101 | 96.3 | 114 | 102 | 99.5 | 106 | 103 | 103 | 111 | 98.1 | 94.5 | 90.2 | 110
7 | Cc1c(-c2ccccc2F)[nH]c(N)c1C#N [NS-8] | 0 | 0 | 0 | 0 | 0 | > 10 | > 10 | > 10 | > 10 | > 10 | 98.1 | 95.9 | 99.8 | 93.9 | 103 | 104 | 101 | 83.6 | 103 | 99.2 | 96.9 | 90.1 | 105 | 97.5 | 105 | 95.2 | 99.1 | 96.2 | 97.7 | 109 | 93.1 | 98.3 | 90.7 | 96.9 | 116
8 | O=c1sn(-c2cccc3ccccc23)c(=O)n1Cc1ccccc1 [tideglusib] | 0 | 0 | 0 | 0 | 0 | > 10 | > 10 | > 10 | > 10 | > 10 | 98 | 101 | 103 | 102 | 97 | 108 | 97.7 | 106 | 99 | 97.2 | 95.6 | 90.2 | 102 | 98.9 | 110 | 97 | 96.8 | 97 | 93.9 | 100 | 90.7 | 106 | 100 | 98.8 | 103
9 | COc1ccc(Oc2c(Cl)cnn(C3c4ccccc4-c4ccccc43)c2=O)cc1 | 0 | 0 | 0 | 0 | 0 | > 10 | > 10 | > 10 | > 10 | > 10 | 102 | 95.1 | 94.3 | 97.9 | 95.5 | 110 | 99.9 | 96.4 | 101 | 101 | 98.7 | 95 | 97 | 101 | 88.7 | 92.6 | 107 | 94.7 | 96.4 | 99.6 | 103 | 99.8 | 93.5 | 108 | 100
10 | CN/C(=N\S(=O)(=O)c1ccc(Cl)cc1)N1C[C@H](c2ccccc2)C(c2ccc(Cl)cc2)=N1 (racemic) [SLV-319-(+/-)] | 0 | 0 | 0.2 | 0 | 0.1 | > 10 | > 10 | > 10 | > 10 | > 10 | 99.9 | 99.1 | 102 | 98.9 | 93.1 | 107 | 98.5 | 100 | 118 | 111 | 95.1 | 96.3 | 100 | 103 | 83.1 | 98.1 | 105 | 100 | 91.3 | 94.8 | 108 | 94.2 | 99.9 | 89.6 | 93.7
11 | CN1CCN(Cc2ccc(Nc3ncc(Cl)c(Nc4ccccc4S(=O)(=O)N(C)C)n3)cc2)CC1 [TP-0903] | 6.2 | 0.3 | 5.9 | 8.8 | 11.2 | 2.06 | > 10 | 1.69 | 1.51 | 0.948 | 95 | 98.2 | 95.1 | 89.1 | 21 | 92.3 | 92 | 89 | 110 | 80.2 | 109 | 96.3 | 102 | 85.9 | 33.4 | 112 | 105 | 103 | 75.8 | 7.4 | 107 | 109 | 99.8 | 50.4 | 7
12 | CC(=O)[C@H]1CC[C@H]2[C@@H]3CC=C4C[C@@H](OC(=O)CCC(=O)O)CC[C@]4(C)[C@H]3CC[C@]12C [pregnenolone-succinate] | 0 | 0 | 0.3 | 0 | 0 | > 10 | > 10 | > 10 | > 10 | > 10 | 101 | 94.7 | 100 | 97.9 | 99.9 | 89.8 | 95.1 | 93.7 | 94.1 | 113 | 90.5 | 97.4 | 110 | 94.2 | 87.7 | 94.1 | 96.8 | 88.7 | 97.3 | 107 | 93.3 | 93.8 | 94.4 | 95 | 97
13 | CCCN(CCC)CCc1ccc(OC)c(OCCc2ccccc2)c1 [NE-100] | 0 | 0 | 0.1 | 0 | 0 | > 10 | > 10 | > 10 | > 10 | > 10 | 105 | 100 | 104 | 101 | 97.9 | 95.1 | 93.5 | 85.9 | 107 | 105 | 105 | 102 | 89.8 | 92.9 | 91.3 | 107 | 106 | 99.3 | 103 | 94.8 | 101 | 98.5 | 98.6 | 99.3 | 93
14 | COc1cc(OC)c(C(=O)CCCCN2CCC3(CC2)NC(=O)NC3=O)cc1NS(=O)(=O)c1ccc(C(F)(F)F)cc1 | 0 | 0 | 0 | 0 | 0 | > 10 | > 10 | > 10 | > 10 | > 10 | 98.8 | 106 | 99.7 | 101 | 94.7 | 98.2 | 108 | 81.2 | 93.9 | 93.6 | 102 | 103 | 107 | 98.7 | 93.6 | 103 | 106 | 102 | 99.5 | 99.7 | 102 | 111 | 95.3 | 89.1 | 105
